Source: patent US20160106813A1 (CENTRE NATIONAL DE LA RECHERCHE SCHIENTIFIQUE (CNRS), priority 2013, published 2016)
Ends that are not written are not given here.

How the values were obtained:
[1] = tested on: HIV-1 JRCSF; assay: HIV-1 transfer from monocyte-derived Langerhans cells (MDLC) to CD4+ T-cells, p24 ELISA of co-culture supernatants; format: cell-based
Experimental: Peripheral blood mononuclear cells (PBMCs) from healthy donors were separated from whole blood by a standard Ficoll gradient. CD14+ monocytes and CD4+ TCs were obtained from PBMCs by negative magnetic selection (Stemcell Technologies, Grenoble, France) according to the manufacturer's instructions. MDLC were prepared and maintained as described (Masterson et al., Blood 100:701-703; Geissmann et al., J Exp Med 187:961-966.)

[2] = tested on: CCL3/MIP-1α; assay: CCL3/MIP-1α levels in LC-TC co-culture supernatants, multiplex assay and flow cytometry; format: cell-based, human; conditions: highest concentration of BAY117082, n=4
[3] = tested on: HIV-1; conditions: agent added during co-culture; dose-dependent
Experimental: Normal goat IgG, neutralizing CCL3/MIP-1α goat Ab (R&D systems, Minneapolis, Minn., USA), or the NFκB inhibitor BAY117082 (Santa Cruz Biotechnology, Santa Cruz, Calif., USA), were included during the co-culture period (MDLC-TC) described previously. HIV-1 replication was measured in the co-culture supernatants a week later by p24 ELISA (Innotest; Innogenetics, Gent, Belgium).

Ala-Cys-Asn-Thr-Ala-Thr-Cys-Val-Thr-His-Arg-Leu-Ala-Gly-Leu-Leu-Ser-Arg-Ser-Gly-Gly-Met-Val-Lys-Ser-Asn-Phe-Val-Pro-Thr-Asn-Val-Gly-Ser-Lys-Ala-Phe-NH2 (ACNTATCVTHRLAGLLSRSGGMVKSNFVPTNVGSKAF-NH2; ends and bridges not checked) [beta CGRP]
HIV-1 transfer from Langerhans cells to TCs (in words) ([1]; MDLCs pretreated with the peptide, pulsed with HIV-1 JRCSF (R5), co-cultured a week with CD4+ TCs): inhibit HIV-1 transfer

Cc1ccc(S(=O)(=O)/C=C/C#N)cc1 [BAY117082]
CGRP-induced CCL3/MIP-1α secretion in presence of inhibitor, mean±s.e.m fold [2]: 1.0±0.1 fold
effect on CGRP-mediated HIV-1 transfer inhibition [3]: abrogated

CGRP8-37: truncated CGRP receptor antagonist (VTHRLAGLLSRSGGVVKNNFVPTNVGSKAF; ends and bridges not checked; UniProt P06881 90-119, looked up, fragment)
effect on the inhibitory effect of CGRP on HIV-1 transfer ([1]; 1000 nM CGRP8-37 added 10 min before CGRP): completely abrogated
